Reference: ChEMBL document CHEMBL1201862, “PubChem BioAssay data set” (2004)
Active and inactive are the calls of the source.

Tests used:
Protein Wnt-3a = Protein Wnt-3a (Mus musculus, UniProt P27467); test: antagonism of Wnt3a pathway luciferase reporter – Wnt-LIGHT cells, luminescence, selectivity assay for Gli-SUFU antagonist project, dose response (AID 651570); format: functional; details: read-out: IC50_Mean;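 note: Wnt-LIGHT reporter cells stimulated with conditioned medium from Wnt3a-producing cells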
Protein Wnt-3a, sequence (P27467 whole entry): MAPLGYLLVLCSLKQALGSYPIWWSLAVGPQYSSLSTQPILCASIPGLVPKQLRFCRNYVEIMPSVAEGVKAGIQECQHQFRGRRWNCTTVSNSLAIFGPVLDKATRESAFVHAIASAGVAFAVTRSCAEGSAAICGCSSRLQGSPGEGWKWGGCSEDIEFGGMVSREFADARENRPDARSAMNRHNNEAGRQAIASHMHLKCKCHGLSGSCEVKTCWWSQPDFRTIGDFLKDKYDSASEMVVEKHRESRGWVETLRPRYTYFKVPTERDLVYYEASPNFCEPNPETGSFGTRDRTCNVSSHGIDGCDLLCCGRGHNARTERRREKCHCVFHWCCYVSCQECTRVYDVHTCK

cells = format: functional, cell-based; details: HEK-CNG
Galanin receptor type 3 = target: T1, Galanin receptor type 3 (Homo sapiens, UniProt O60755); test: Fluorescence-based cell-based primary high throughput dose response assay to identify antagonists of the Galanin Receptor 3 (GalR3).; format: functional
T1 sequence (O60755 whole entry): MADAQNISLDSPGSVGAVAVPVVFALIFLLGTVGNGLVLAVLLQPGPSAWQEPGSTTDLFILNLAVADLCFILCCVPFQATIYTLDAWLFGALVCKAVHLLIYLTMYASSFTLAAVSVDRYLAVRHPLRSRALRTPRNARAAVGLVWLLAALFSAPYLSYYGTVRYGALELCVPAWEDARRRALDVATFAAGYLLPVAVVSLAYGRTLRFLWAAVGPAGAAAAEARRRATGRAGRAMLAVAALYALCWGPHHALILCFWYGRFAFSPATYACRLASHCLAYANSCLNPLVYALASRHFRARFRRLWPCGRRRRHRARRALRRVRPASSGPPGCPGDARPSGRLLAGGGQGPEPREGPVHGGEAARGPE

[1] = target: T2, Tyrosine-protein phosphatase non-receptor type 5 (Homo sapiens, UniProt P54829); test: PTPN5 enzyme inhibition – biochemical, fluorescence intensity, uHTS hits, confirmation (AID 602372); format: functional; details: read-out: IC50_Mean
T2 sequence (P54829 whole entry): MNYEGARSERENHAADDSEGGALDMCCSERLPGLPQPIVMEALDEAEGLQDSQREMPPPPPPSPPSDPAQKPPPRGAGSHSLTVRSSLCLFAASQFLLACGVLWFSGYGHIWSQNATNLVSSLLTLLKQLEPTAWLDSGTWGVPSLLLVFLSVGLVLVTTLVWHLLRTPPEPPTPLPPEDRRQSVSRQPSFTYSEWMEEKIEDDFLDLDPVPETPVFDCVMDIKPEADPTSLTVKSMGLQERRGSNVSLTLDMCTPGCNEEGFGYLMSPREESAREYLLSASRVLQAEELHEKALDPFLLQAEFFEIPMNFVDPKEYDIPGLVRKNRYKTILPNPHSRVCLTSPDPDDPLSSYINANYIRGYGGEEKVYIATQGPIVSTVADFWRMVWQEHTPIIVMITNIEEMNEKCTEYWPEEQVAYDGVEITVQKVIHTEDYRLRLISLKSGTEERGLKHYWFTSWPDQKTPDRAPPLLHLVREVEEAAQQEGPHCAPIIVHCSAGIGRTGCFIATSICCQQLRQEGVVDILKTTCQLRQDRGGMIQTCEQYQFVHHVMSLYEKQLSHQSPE

[2] = target: Dual specificity protein phosphatase 3 (Homo sapiens, UniProt P51452); test: VHR phosphatase inhibition, dose response, selectivity assay for STEP inhibitor project, biochemical (AID 602374); format: functional; details: read-out: IC50_Mean
Dual specificity protein phosphatase 3, sequence (P51452 whole entry): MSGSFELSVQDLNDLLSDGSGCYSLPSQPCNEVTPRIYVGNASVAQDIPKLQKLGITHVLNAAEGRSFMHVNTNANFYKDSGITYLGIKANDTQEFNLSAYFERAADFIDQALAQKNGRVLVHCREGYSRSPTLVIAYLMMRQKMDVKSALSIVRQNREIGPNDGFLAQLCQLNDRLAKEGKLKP

[3] = target: T3, Tyrosine-protein phosphatase non-receptor type 11 (Homo sapiens, UniProt Q06124); test: PTPN11 enzyme inhibitors – biochemical, selectivity assay for STEP inhibitor project, dose response (AID 602367); format: functional; details: read-out: IC50_Mean
T3 sequence (Q06124 whole entry): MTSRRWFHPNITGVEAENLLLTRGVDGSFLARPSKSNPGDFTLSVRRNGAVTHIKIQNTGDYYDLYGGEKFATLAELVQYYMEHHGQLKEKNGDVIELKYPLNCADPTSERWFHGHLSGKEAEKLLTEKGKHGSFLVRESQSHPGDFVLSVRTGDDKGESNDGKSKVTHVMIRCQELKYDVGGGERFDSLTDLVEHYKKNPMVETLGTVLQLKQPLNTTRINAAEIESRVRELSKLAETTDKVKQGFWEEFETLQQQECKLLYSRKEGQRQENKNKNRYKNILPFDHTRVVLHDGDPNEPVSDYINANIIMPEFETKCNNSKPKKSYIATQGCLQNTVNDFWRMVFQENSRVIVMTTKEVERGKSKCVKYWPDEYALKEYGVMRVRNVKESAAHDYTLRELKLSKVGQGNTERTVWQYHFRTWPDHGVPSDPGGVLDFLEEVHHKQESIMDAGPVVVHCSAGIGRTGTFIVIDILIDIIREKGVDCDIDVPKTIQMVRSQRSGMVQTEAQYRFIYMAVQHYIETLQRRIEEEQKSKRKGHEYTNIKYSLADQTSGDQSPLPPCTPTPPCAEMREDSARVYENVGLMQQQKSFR

[4] = target: T4, Small ubiquitin-related modifier 1 (Homo sapiens, UniProt P63165); test: SUMO1 protein-protein binding blockers, potency – biochemical, FRET, dose response (AID 624383); format: functional; details: read-out: IC50_Mean
T4 sequence (P63165 whole entry): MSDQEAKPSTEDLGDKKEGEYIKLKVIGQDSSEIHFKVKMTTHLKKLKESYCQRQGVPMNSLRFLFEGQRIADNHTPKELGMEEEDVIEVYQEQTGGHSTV

[5] = target: T4, Small ubiquitin-related modifier 1; test: SUMO1 protein interaction blockers, potency – biochemical, fluorescence polarization, uHTS hits, dose response (AID 624382); format: functional; details: read-out: IC50_Mean
[6] = target: T5, Carboxy-terminal domain RNA polymerase II polypeptide A small phosphatase 1 (Homo sapiens, UniProt Q9GZU7); test: CTDSP1 inhibitors, concentration-response, biochemical, absorbance readout, ultra-high-throughput screen actives (AID 540297); format: functional
T5 sequence (Q9GZU7 whole entry): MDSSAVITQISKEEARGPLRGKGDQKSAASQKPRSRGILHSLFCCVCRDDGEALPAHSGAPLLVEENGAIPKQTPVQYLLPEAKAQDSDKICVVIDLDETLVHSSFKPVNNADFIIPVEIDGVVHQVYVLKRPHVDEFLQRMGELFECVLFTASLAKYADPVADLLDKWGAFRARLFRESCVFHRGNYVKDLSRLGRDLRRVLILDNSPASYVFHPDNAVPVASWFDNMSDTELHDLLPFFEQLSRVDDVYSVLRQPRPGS

[7] = blockade of melanocortin 4 receptor signaling – cell-based, plate reader, cherry pick, counter-screen for LGR2 antagonist project, dose response (AID 743444); format: functional;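 note: transfected HEK 293 cells stimulated with alpha-MSH peptide; potency of inhibitors of the alpha-MSH evoked signal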
[8] = non-specific 3'UTR reporter inhibition in Clone20-Shn3RL – cell-based, Renilla luciferase, cherry-picked, counter-screen for Shn3 inhibitor project, dose response (AID 624133); format: functional
INS1 = test: INS-1E survival protection against cytokine death – cell-based, luminescence, retest, dose response (AID 449756); format: functional; details: Rattus norvegicus;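 note: cell death triggered by IL-1 beta plus TNF-alpha plus IFN-gamma mixture; protective hits raise ATP signal compared with cytokine alone wells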
[9] = loss of viability in HepG2 cells – cell-based, CellTiter-Glo, cherry-picked, cytotoxicity control for Shn3 inhibitor project, dose response (AID 624134); format: functional
[10] = blockers of bursicon-stimulated LGR2 cAMP reporter – cell-based, HEK293, CRE-luciferase reporter, cherry pick, set 2, dose response (AID 743343); format: functional;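 note: transfected cells were stimulated with diluted bursicon conditioned medium after compound addition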
[11] = A549 cell cytotoxicity, dose response, cytotoxicity control, plate reader, cherry-pick, antagonist series (AID 743412); format: functional, cell-based
[12] = reduction of Shn3 3'UTR-driven luciferase in osteoblasts – cell-based, Clone20 osteoblasts, firefly luciferase, cherry-picked, dose response (AID 624132); format: functional;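 note: firefly luciferase luminescence from reporter carrying the Shn3 3'UTR in osteoblasts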
[13] = toxicity toward HepG2 liver cells – cell-based, plate reader, cherry-pick, antagonist series, cytotoxicity control, dose response (AID 743416); format: functional
[14] = HEK-293T viability loss after treatment – luminescence, T-cell screen hits, cytotoxicity control for TCR NF-kB inhibitor project, dose response (AID 489026); format: functional, cell-based;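 note: cells exposed to compound about 14 hours before the viability readout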
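Throughout, for EC50: target is galanin receptor GalR3 read with a cAMP biosensor in HEK293 cells.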

CNS(=O)(=O)c1cccc(C(=O)OCC(=O)c2cc(C)n(CC3CCCO3)c2C)c1 (stereo not drawn)
IC50 (Protein Wnt-3a): 28.9 µM (inactive)

O=C(NCCCl)NNc1c(Cl)cc(Cl)cc1Cl
EC50 (cells): > 29.9 µM (inactive) | IC50 (Galanin receptor type 3): > 29.9 µM (inactive)

Cc1sc2nc(CSC(C)C(=O)Nc3ccc(Cl)cn3)nc(O)c2c1C (stereo not drawn)
IC50 [1]: 15.6 µM (active) | IC50 [2]: 0.927 µM (active) | IC50 [3]: 5.47 µM (active)

COc1c(/C=C2\SC(Nc3ccccc3Cl)=NC2=O)cccc1[N+](=O)[O-]
EC50 (cells): > 29.9 µM (inactive) | IC50 (Galanin receptor type 3): 0.547 µM (active)

O=C(CSc1nc(C2CC2)nc2ccccc12)Nc1cccc(O)c1
IC50 [4]: 20.4 µM (inactive) | IC50 [5]: > 66.6 µM (inactive)

COc1cccc(Nc2nn3c(=O)c4ccccc4nc3s2)c1
IC50 [1]: 24.9 µM (inactive) | IC50 [6]: 12.8 µM (active) | IC50 [2]: 6.62 µM (active) | IC50 [3]: 9.22 µM (active)

CCOC(=O)c1cc(-c2ccc(OC)cc2)nn1-c1ccccc1C(=O)O
IC50 [6]: 14.5 µM (active) | IC50 [4]: 21.8 µM (inactive) | IC50 [5]: > 66.6 µM (inactive)

Cc1cc(C)c(C)c(S(=O)(=O)N2CCN(c3ncnc4ccccc34)CC2)c1C
AC50 [7]: 34.2 µM (active) | AC50 [8]: 1.86 µM (active) | AC50 (INS1): 2.22 µM (active) | AC50 [9]: 1.91 µM (active) | AC50 [10]: 24.9 µM (active) | AC50 [11]: 31.4 µM (active) | AC50 [12]: 1.46 µM (active) | IC50 (Protein Wnt-3a): 1.96 µM (active) | AC50 [13]: 4.26 µM (active)

O=C(Nc1ccc2oc(=O)ccc2c1)c1ccc(-c2ccccc2[N+](=O)[O-])o1
IC50 [4]: 10.2 µM (active) | IC50 [5]: > 66.6 µM (inactive)

Cc1ncoc1C(=O)NC1CCCc2c1cnn2-c1ccc(C(C)(C)C)cc1 (stereo not drawn)
IC50 [14]: > 80 µM (inactive) | IC50 (Protein Wnt-3a): 4.53 µM (active)

COc1ccc(C2=CC(c3ccc4c(c3)OCO4)c3c(c4ccccc4oc3=O)O2)cc1OC (stereo not drawn)
EC50 (cells): > 29.9 µM (inactive) | IC50 (Galanin receptor type 3): 5.72 µM (active)

COc1ccc(N(CC(=O)NCc2cccs2)S(=O)(=O)c2ccc(C(C)=O)cc2)cc1
AC50 [13]: > 52 µM (inactive)
